Reference: US8980848B2, “Flavonoid dimers and their use” (The Hong Kong Polytechnic University, priority 2010, dated 2015)

What was measured:
[1] = Tumor cell line cytotoxicity of flavonoid dimers, LCC6; format: cell-based, human; settings: human, IC50 of compound alone
Method: (§1) (b) Tumor Cell Line Cytotoxicity. The tumor cytotoxicity assays of flavonoid dimers were performed against LCC6, LCC6MDR and L929 cell lines. […] In brief, LCC6, LCC6MDR and L929 cells were seeded into 96-well flat bottom microtiter plate at 1×10^4 cells per well in a final volume of 100 μL media, respectively. A graded dose of flavonoid dimers was added into wells. The plate was incubated at 37° C. for 72 hrs at the atmosphere 5% CO2 in the air. The % of survivors was determined.

[2] = Cytotoxicity of flavonoid dimers, L929 mouse fibroblast; format: cell-based; settings: mouse, IC50 of compound alone, 72 hrs, mouse fibroblast
Method: as §1

[3] = Tumor cell line cytotoxicity of flavonoid dimers, LCC6MDR; format: cell-based, human; settings: human, IC50 of compound alone
Method: as §1

Pgp (LCC6MDR cells) = Pgp (LCC6MDR cells) (Homo sapiens, UniProt P08183); assay: Cell proliferation assay: Pgp-modulating activity, reversal of anticancer drug resistance in LCC6MDR cells; settings: for EC50: EC50 of compounds for reversing anticancer drug resistance (nM), Paclitaxel; for EC50 / RF (Relative Fold), cpd at 0.5 μM / RF (Relative Fold), cpd at 1 μM: LCC6MDR; for Therapeutic index: IC50 of compounds for L929/EC50 of compounds for lowering paclitaxel drug resistance; for RF (Relative Fold), cpd at 0.5 μM: RF = (IC50 without modulator)/(IC50 with 0.5 μM modulator); for RF (Relative Fold), cpd at 0.5 μM / RF (Relative Fold), cpd at 1 μM: paclitaxel; for RF (Relative Fold), cpd at 1 μM: RF = (IC50 without modulator)/(IC50 with 1.0 μM modulator)
Chain of Pgp (LCC6MDR cells) (P08183 whole entry): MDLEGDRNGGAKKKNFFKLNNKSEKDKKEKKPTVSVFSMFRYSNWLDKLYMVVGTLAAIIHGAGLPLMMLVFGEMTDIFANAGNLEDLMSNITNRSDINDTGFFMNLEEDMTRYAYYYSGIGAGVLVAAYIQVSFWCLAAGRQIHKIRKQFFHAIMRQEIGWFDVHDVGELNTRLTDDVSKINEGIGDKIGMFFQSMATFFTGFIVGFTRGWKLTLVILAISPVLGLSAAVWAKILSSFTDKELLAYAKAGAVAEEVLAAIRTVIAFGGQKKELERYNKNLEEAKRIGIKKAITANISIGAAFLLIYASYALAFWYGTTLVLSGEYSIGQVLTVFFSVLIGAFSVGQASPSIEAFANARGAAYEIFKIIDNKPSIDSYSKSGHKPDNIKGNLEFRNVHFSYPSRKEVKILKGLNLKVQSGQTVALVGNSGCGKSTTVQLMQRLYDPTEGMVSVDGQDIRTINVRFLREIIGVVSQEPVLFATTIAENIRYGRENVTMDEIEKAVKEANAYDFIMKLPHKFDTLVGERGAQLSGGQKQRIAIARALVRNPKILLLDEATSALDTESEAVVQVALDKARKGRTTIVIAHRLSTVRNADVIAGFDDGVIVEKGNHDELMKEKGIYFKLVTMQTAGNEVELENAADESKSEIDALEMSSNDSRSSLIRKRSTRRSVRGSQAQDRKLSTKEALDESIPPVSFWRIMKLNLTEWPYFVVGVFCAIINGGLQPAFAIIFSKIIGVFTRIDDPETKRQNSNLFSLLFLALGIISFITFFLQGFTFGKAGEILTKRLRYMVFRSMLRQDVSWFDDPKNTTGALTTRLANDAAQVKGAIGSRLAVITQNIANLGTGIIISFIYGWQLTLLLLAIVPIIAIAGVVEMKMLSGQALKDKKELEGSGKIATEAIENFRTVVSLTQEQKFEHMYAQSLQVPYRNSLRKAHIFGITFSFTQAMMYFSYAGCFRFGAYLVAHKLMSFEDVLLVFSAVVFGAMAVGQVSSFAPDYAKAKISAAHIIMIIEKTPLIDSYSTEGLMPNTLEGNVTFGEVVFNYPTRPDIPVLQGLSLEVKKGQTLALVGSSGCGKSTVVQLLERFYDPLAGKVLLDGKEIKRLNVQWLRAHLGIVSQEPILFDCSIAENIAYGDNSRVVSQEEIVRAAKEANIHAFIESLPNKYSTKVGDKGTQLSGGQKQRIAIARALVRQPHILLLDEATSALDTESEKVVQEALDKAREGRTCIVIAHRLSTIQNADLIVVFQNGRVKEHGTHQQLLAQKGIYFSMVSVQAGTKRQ
Method: Cell Proliferation Assay. 6,000 cells of LCC6 or LCC6MDR and anticancer drugs (paclitaxel, vinblastine, vincristine, doxorubicin and mitoxantrone) were mixed with or without modulators to a final volume of 200 μL in each well of 96-well plates. […] The plates were then incubated for 5 days at 37° C. […] IC50 values were calculated from the dose-response curves of MTS assays (Prism 4.0).

SMILES | IC50 at 72 h ([1]; LCC6 cells) | IC50 at 72 h ([2]; L929 fibroblast cells) | IC50 at 72 h ([3]; LCC6MDR cells) | EC50 (Pgp (LCC6MDR cells)) | Therapeutic index (Pgp (LCC6MDR cells)) | RF (Relative Fold), cpd at 0.5 μM (Pgp (LCC6MDR cells)) | RF (Relative Fold), cpd at 1 μM (Pgp (LCC6MDR cells)) | IC50 at 72 h [1] | IC50 at 72 h [2] | IC50 at 72 h [3]
O=c1cc(-c2ccc(OCCOCCN(CCOCCOc3ccc(-c4cc(=O)c5ccccc5o4)cc3)Cc3c(F)cccc3F)cc2)oc2ccccc12 [Compound 41, 1,13-Bis[4′-(4H-chromen-4-on-2-yl)phenyl]-7-(2,6-difluorobenzyl)-1,4,10,13-tetraoxa-7-azamidecane] | > 100 µM | > 100 µM | > 100 µM | 237 ± 91 nM | >421.9 | (34.0) | (90.1) |  |  | 
C[C@H](N)C(=O)N(CCOCCOc1ccc(-c2cc(=O)c3ccccc3o2)cc1)CCOCCOc1ccc(-c2cc(=O)c3ccccc3o2)cc1 [Compound 23b, 1,13-Bis[4′-(4H-chromen-4-on-2-yl)phenyl]-7-[(S)-2-amino-1-oxopropyl]-1,4,10,13-tetraoxa-7-azamidecane] | 4.4 µM |  | 4.6 ± 0.2 µM |  |  | (1.0) |  |  |  | 
COc1cc(-c2cc(=O)c3ccccc3o2)ccc1OCCOCCNCCOCCOc1ccc(-c2cc(=O)c3ccccc3o2)cc1OC [Compound 12b, 1,13-Bis[4′-((4H-chromen-4-on-2-yl)-3′-methoxyphenyl)]-1,4,10,13-tetraoxa-7-azamidecane] | 12.8 ± 1.1 µM |  | 23.8 ± 12.8 µM |  |  | (0.8) |  |  |  | 
O=c1cc(-c2ccc(OCCOCCN(CCOCCOc3ccc(-c4cc(=O)c5ccccc5o4)cc3)Cc3ccnc(Br)c3)cc2)oc2ccccc12 [Compound 64b, 1,13-Bis[4′-(4H-chromen-4-on-2-yl)phenyl]-7-(4-(2-bromopyridyl)methyl)-1,4,10,13-tetraoxa-7-azamidecane] | > 100 µM | > 100 µM | > 100 µM |  |  | (8.4) | (76.6) |  |  | 
O=c1cc(-c2ccc(OCCOCCN(CCOCCOc3ccc(-c4cc(=O)c5ccccc5o4)cc3)Cc3cccc(Cl)c3)cc2)oc2ccccc12 [Compound 48, 1,13-Bis[4′-(4H-chromen-4-on-2-yl)phenyl]-7-(3-chlorobenzyl)-1,4,10,13-tetraoxa-7-azamidecane] | > 100 µM | > 100 µM | > 98 µM |  |  | (19.6) | (80.6) |  |  | 
O=c1cc(-c2ccc(OCCOCCN(CCOCCOc3ccc(-c4cc(=O)c5ccccc5o4)cc3)Cc3cccnc3)cc2)oc2ccccc12 [Compound 64a, 1,13-Bis[4′-(4H-chromen-4-on-2-yl)phenyl]-7-(3-pyridylmethyl)-1,4,10,13-tetraoxa-7-azamidecane] | 5.7 ± 1.4 µM | 2.3 ± 0.2 µM | 4.7 ± 0.2 µM |  |  | (8.5) | (46.4) |  |  | 
C=Cc1ccc(CN(CCOCCOc2ccc(-c3cc(=O)c4ccccc4o3)cc2)CCOCCOc2ccc(-c3cc(=O)c4ccccc4o3)cc2)cc1 [Compound 52, 1,13-Bis[4′-(4H-chromen-4-on-2-yl)phenyl]-7-(4-vinylbenzyl)-1,4,10,13-tetraoxa-7-azamidecane] | 21 ± 4.7 µM | 7.4 ± 1 µM | 28.3 ± 8.2 µM |  |  | (72.9) | (117.8) |  |  | 
Nc1ccc(CN(CCOCCOc2ccc(-c3cc(=O)c4ccccc4o3)cc2)CCOCCOc2ccc(-c3cc(=O)c4ccccc4o3)cc2)cc1 [Compound 55, 1,13-Bis[4′-(4H-chromen-4-on-2-yl)phenyl]-7-(4-aminobenzyl)-1,4,10,13-tetraoxa-7-azamidecane] | > 50 µM | > 50 µM | > 50 µM | 244 nM | 204.9 | (8.8) | (72.9) |  |  | 
CC(C)(C)OC(=O)Nc1ccc(CN(CCOCCOc2ccc(-c3cc(=O)c4ccccc4o3)cc2)CCOCCOc2ccc(-c3cc(=O)c4ccccc4o3)cc2)cc1 [Compound 54, 1,13-Bis[4′-(4H-chromen-4-on-2-yl)phenyl]-7-(4-tert-butyloxycarbonylanimobenzyl)-1,4,10,13-tetraoxa-7-azamidecane] | > 50 µM | > 50 µM | > 50 µM | 188 nM | 266.0 | (45.0) | (95.7) |  |  | 
Cc1cccc(CN(CCOCCOc2ccc(-c3cc(=O)c4ccccc4o3)cc2)CCOCCOc2ccc(-c3cc(=O)c4ccccc4o3)cc2)c1 [Compound 45, 1,13-Bis[4′-(4H-chromen-4-on-2-yl)phenyl]-7-(3-methylbenzyl)-1,4,10,13-tetraoxa-7-azamidecane] | 57.7 ± 5.9 µM | 55 ± 4.4 µM | > 66 µM |  |  | (32.6) | (102.1) |  |  | 
CC(C)(C)CC(=O)N(CCOCCOc1ccc(-c2cc(=O)c3ccccc3o2)cc1)CCOCCOc1ccc(-c2cc(=O)c3ccccc3o2)cc1 [Compound 33, 1,13-Bis[4′-(4H-chromen-4-on-2-yl)phenyl]-7-(tert-butylacetyl)-1,4,10,13-tetraoxa-7-azamidecane] | > 100 µM | > 100 µM | > 100 µM |  |  | (18.9) |  |  |  | 
O=c1cc(-c2ccc(OCCOCCN(CCOCCOc3ccc(-c4cc(=O)c5ccccc5o4)cc3)Cc3nc4ccccc4[nH]3)cc2)oc2ccccc12 [Compound 60, 1,13-Bis[4′-(4H-chromen-4-on-2-yl)phenyl]-7-(2-benzimidazolylmethyl)-1,4,10,13-tetraoxa-7-azamidecane] | > 100 µM | > 70 µM | > 100 µM |  |  | (21.9) | (117.8) |  |  | 
Cc1ccc(CN(CCOCCOc2ccc(-c3cc(=O)c4ccccc4o3)cc2)CCOCCOc2ccc(-c3cc(=O)c4ccccc4o3)cc2)cc1 [Compound 47, 1,13-Bis[4′-(4H-chromen-4-on-2-yl)phenyl]-7-(4-methylbenzyl)-1,4,10,13-tetraoxa-7-azamidecane] | > 100 µM | 66.4 ± 16.8 µM | > 81 µM |  |  | (31.2) | (109.4) |  |  | 
CCc1ccc(CN(CCOCCOc2ccc(-c3cc(=O)c4ccccc4o3)cc2)CCOCCOc2ccc(-c3cc(=O)c4ccccc4o3)cc2)cc1 [Compound 53, 1,13-Bis[4′-(4H-chromen-4-on-2-yl)phenyl]-7-(4-ethylbenzyl)-1,4,10,13-tetraoxa-7-azamidecane] | > 100 µM | 25.4 ± 8.1 µM | > 100 µM |  |  | (23.9) | (69.6) |  |  | 
O=c1cc(-c2ccc(OCCOCCN(CCOCCOc3ccc(-c4cc(=O)c5ccccc5o4)cc3)Cc3ccc(OC(F)(F)F)cc3)cc2)oc2ccccc12 [Compound 42b, 1,13-Bis[4′-(4H-chromen-4-on-2-yl)phenyl]-7-(4-trifluoromethoxybenzyl)-1,4,10,13-tetraoxa-7-azamidecane] | > 100 µM | > 83 µM | > 100 µM |  |  | (3.8) | (47.8) |  |  | 
COc1cccc2oc(-c3ccc(OCCOCCNCCOCCOc4ccc(-c5cc(=O)c6c(OC)cccc6o5)cc4)cc3)cc(=O)c12 [Compound 12d, 1,13-Bis[4′-((5-methoxy)-4H-chromen-4-on-2-yl)phenyl]-1,4,10,13-tetraoxa-7-azamidecane] | 8.8 ± 2.7 µM |  | 10.2 ± 3.8 µM |  |  | (1.2) |  |  |  | 
C/C=C/C[C@@H](C)C(=O)[C@H]1C(=O)N[C@@H](C(C)C)C(=O)N(C)CC(=O)N(C)[C@@H](CC(C)C)C(=O)N[C@@H](C(C)C)C(=O)N(C)[C@@H](CC(C)C)C(=O)N[C@@H](C)C(=O)N[C@H](C)C(=O)N(C)[C@@H](CC(C)C)C(=O)N(C)[C@@H](CC(C)C)C(=O)N(C)[C@@H](C(C)C)C(=O)N1C [PSC833, reference compound] |  |  |  |  |  |  |  | 25.3 ± 4.3 µM | > 100 µM | 14.6 ± 2.2 µM
